Literature values as cited in US20050277626A1, “Methods and compositions for treatment of nicotine dependence and dementias” (priority 2004, published 2005).

Legend:
[1] = 400 mg per day
[2] = schizophrenic patients

Question: With O=C(NCCN1CCOCC1)c1ccc(Cl)cc1 [moclobemide] as the compound, how does the “efficacy for smoking cessation” value [1] read?
Answer: The value was “demonstrated efficacy”.

Question: Which “cognitive effect, blinded placebo controlled study” value [2] does the source give for COc1cc2c(cc1OC)C(=O)C(CC1CCN(Cc3ccccc3)CC1)C2 (stereo not shown) [donepazil] here?
Answer: The value was “no effect”.

Question: And the “cognitive effect, open label studies” value [2]?
Answer: The value was “modest cognitive improvements”.

Question: Which “apoptosis induced by beta-amyloid and thapsigargin” value (neuroblastoma cell lines) does the source give for COc1ccc2c3c1O[C@H]1C[C@@H](O)C=C[C@@]31CCN(C)C2 [galantamine] here?
Answer: Its value is “inhibit apoptosis induced by beta-amyloid and thapsigargin in a concentration dependent manner”.
